Measured values published in publication PMC9535023, “Inhibition of phospholipase D1 induces immunogenic cell death and potentiates cancer immunotherapy in colorectal cancer” (Experimental & Molecular Medicine, 2022).

How the values were obtained:
DLD1 cells [1] = assay: Cell cycle analysis (BrdU/7-AAD flow cytometry), DLD1; assay type: cell-based
Protocol: For cell cycle analysis, the cells were treated with Α3373 or 5-FU. The cells were labeled with 10 μΜ bromodeoxyuridine (BrdU) for 2 h. Subsequently, the cells were stained with 7-aminoactinomycin D (7-AAD, Invitrogen) and a fluorescein isothiocyanate (FITC)-conjugated anti-BrdU antibody (Invitrogen). Apoptotic cells were detected using an Annexin V-FITC Apoptosis Detection Kit (BD Biosciences). The cells were analyzed using BD FACSAria III (BD Biosciences), and data analysis was performed using FlowJo v10.0 (BD Biosciences).

[2] = Single oral dose toxicity in mice; conditions: female and male mice
DLD1 cells [3] = assay: In vitro phagocytosis assay, DLD1 cells with THP1 macrophages; assay type: cell-based; conditions: CFSE-labeled CRC cells cocultured with PMA-activated THP1 macrophages, vs vehicle
[4] = test system: 21 purified protein kinases; assay: Kinase panel assay (KinaseProfiler); assay type: biochemical; conditions: 1 µM A3373
Protocol: (§1) Supplementary materials and methods […]
In vitro kinase activity assays of A3373 were perfo rmed using the 21 kinase KinaseProfilerTM
(eurofins). Kinase activity was determined aft er in cubation with 1 µM A3373, acco rding to the
KinaseProfilerTM Service standard assay protocol s. […]

hERG K^+ channel = target: T1, hERG K^+ channel (Homo sapiens, UniProt Q12809); assay: hERG patch-clamp assay in HEK293 cells transfected with hERG; assay type: cell-based
T1 construct: expressed in transfected cells; host or cells: HEK293
T1 sequence (Q12809 whole entry): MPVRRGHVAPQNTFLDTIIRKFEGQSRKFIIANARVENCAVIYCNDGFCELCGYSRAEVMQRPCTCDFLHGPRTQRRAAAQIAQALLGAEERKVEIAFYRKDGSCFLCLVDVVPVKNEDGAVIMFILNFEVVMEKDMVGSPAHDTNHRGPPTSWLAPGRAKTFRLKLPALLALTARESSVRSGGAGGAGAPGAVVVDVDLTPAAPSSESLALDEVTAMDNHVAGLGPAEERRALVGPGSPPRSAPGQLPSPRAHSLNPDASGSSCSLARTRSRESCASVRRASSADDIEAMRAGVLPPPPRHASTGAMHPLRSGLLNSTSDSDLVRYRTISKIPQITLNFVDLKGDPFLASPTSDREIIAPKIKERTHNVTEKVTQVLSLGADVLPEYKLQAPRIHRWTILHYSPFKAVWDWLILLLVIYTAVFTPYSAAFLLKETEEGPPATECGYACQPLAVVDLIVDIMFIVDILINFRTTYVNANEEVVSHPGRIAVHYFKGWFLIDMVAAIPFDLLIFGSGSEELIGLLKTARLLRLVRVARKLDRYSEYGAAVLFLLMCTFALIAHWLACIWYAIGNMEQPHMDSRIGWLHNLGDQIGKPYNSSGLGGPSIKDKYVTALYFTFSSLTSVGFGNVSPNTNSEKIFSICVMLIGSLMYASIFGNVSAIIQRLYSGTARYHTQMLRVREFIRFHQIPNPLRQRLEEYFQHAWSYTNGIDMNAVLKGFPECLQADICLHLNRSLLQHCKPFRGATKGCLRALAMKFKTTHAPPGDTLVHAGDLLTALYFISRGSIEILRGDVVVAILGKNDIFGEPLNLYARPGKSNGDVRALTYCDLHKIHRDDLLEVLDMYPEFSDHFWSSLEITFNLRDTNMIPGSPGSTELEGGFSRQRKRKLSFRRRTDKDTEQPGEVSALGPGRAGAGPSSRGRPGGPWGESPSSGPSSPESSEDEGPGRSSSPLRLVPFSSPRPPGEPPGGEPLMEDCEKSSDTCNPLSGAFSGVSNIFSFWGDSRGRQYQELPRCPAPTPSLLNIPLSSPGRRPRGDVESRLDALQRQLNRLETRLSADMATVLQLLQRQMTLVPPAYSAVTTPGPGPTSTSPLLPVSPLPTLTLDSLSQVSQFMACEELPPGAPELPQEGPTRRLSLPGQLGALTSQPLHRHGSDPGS
Protocol: (§2) Both hERG assays were conducted as described previously.

MC38-GFP-Luc cells = assay: Colon cancer orthotopic model (MC38-GFP-Luc in cecum); assay type: in vivo, mouse
Protocol: GFP-luciferase expressing MC38 murine CRC (MC38-GFP-Luc) cells were cocultured with bone marrow-derived macrophages (BMDMs). After 48 h, the macrophages were isolated and incubated with naïve T cells from the splenocytes of wild-type mice to generate CD8^+ T cells. The activated CD8^+ T cells were sorted using BD FACSAria III, added to wells containing MC38-GFP-Luc cells and titrated to effector cells (E) and the target cell (T) ratio (E/T ratio). Four hours later, CD8^+ T-cell-mediated killing of MC38-GFP-Luc cancer cells in each well was monitored using a luciferase-based bioluminescence imaging system.
as §1
A colon cancer orthotropic model was established using 6- weeks-old C57BL/6 male mice.
Mice were administered a single IP injection of 2,2,2-Tribromoethanol (Avertin, Sigma - aldrich), an an esthetic . T he abdomen was shaved and the surgi cal site was draped in a sterile […]
manner. The incision was extended to 2–3 cm, and the cecum was exposed. 2 × 10^5 MC38-GFP-Luciferas e cells were suspended in 50 µL PBS and injected into the cecum. Seven days after cell injection, 10 mg/kg A3373 was orally administered to the mice daily for 4 weeks. […]
All mice wer e housed at 2 5°C under a 12:12 hou rs light/dark cycle. All animal procedu res were performed in accordance with the institutional guidelines for animal research and were approved by the Institutional Animal Care and Use Committee of Yonsei University (IACUC- […]
In a colon cancer orthotropic model, tumor-infiltrating lymphocytes (TILs) were isolated from the tumor tissue 30 days after cell injection. Tumors wer e en zymatically di ssociated in RPMI media containing 10% FBS, 200 mg/mL collagenase IV (Sigma- Aldrich), 20 mg/mL hyaluronidase (Sigma-Al drich), and 20 mg/mL DNase I (Sigma Aldrich) at 37 ℃ with stirring.
After 20 minutes of incubation, 0.1 M EDTA was added to prevent clumping. Cells were filtered through a 40 µm nylon mesh, single-cell suspensions were counted and used for the experiments. Finally, the TILs were resuspended in PBS containing 1% FBS. For the distribution of immune cells, anti- mouse CD45 microbeads were us ed according to the manufacturer’s instructions (Miltenyi Biotech). Isolated tumor cells were cultured for one passage to change the immunocompromised phenotype and assessed using flow cytometry.
Splenocytes were isolat ed from mouse spleens, seeded at 5× 10^6 cells, and stimulated with 10 µg/mL MC38 GFP-Luciferase cell lysates. For intracellular cytokine staining, cells were […]

CRC cells [5] = assay: Measurement of HMGB1 release (ELISA); assay type: cell-based
Protocol: For the quantitative determination of extracellular ATP, the cells were treated with Α3373. Extracellular release of ATP was assessed using the ENLITEN ATP Assay kit (Promega) according to the manufacturer’s instructions. For the HMGB1 level measurement, the supernatants of the cells were prepared by removing insoluble materials by centrifugation at 10,000 × g for 3 min at 4 °C. The levels of HMGB1 were measured using an HMGB1 detection kit (Chondrex) according to the manufacturer’s instructions.

DLD1 cells [6] = assay: Flow cytometry of CD44 and CD133; assay type: cell-based; conditions: dose-dependent, mean fluorescence intensity
DLD1 cells [7] = assay: Sphere formation assay; assay type: cell-based; conditions: limiting dilution assays
Protocol: DLD1 cells were cultured in DMEM/F-12 with epidermal growth factor (20 ng/mL), basic fibroblast growth factor (20 ng/mL), and B27 supplements in noncoated dishes. For serial passaging, the sphere cells were dissociated into single cells with Accutase (Invitrogen) once every 4–7 days and incubated. After the secondary generation, the DLD1 sphere cells were used for the experiments. […] The cells were fixed with 4% paraformaldehyde, and sphere formation was calculated from 10 positions in each well by an Olympus BX53 microscope and cellSens image acquisition software (Olympus).

CRC cells [8] = assay: TCF transactivation in CRC cells with an active Wnt pathway; assay type: cell-based
hERG channel = hERG channel (Homo sapiens, UniProt Q12809); assay: hERG ligand-binding assay; conditions: HEK293 cells transfected with hERG
hERG channel, sequence (Q12809 whole entry): as above
Protocol: as §2

[9] = test system: AOM/DSS-induced mouse colon cancer; assay: AOM/DSS-induced colitis-associated CRC model; assay type: in vivo; conditions: AOM/DSS mice, 10 mg/kg
Protocol: as §1
The AOM/DSS colorect al cancer model was est ablished using 6 -weeks-old C57BL/6 male mice (Koat ech). Mice were given a single intraperitoneal (IP) injection of the mutagen AOM (10 mg/kg), aft er whi ch t hey were given three periods drinking water contai ning 2.5% DSS for 5 days, followed by 15 days of normal water. AOM/DSS-induced mice were given either vehicle (PBS containing 8% DMSO and 1% Tween 80) or 10 mg/kg A3373 compound every day by oral administration for 45 days. […]

HEK293 cells = assay: TCF transactivation in HEK293 cells; assay type: cell-based; conditions: Wnt3a 150 ng/mL
[10] = mesenteric lymph nodes, vs vehicle

O=C(Nc1cc(C(F)(F)F)cc(C(F)(F)F)c1)c1cc2cc(F)ccc2[nH]1 [Compound A3373]
cell cycle / proliferation of CRC cells, in words (DLD1 cells [1]): significantly decreased the proliferation of CRC cells | approximate lethal dose [2]: over 2000 mg/kg | population of CD11b+CFSE+ macrophages, in words (DLD1 cells [3]): significantly increased the population of CD11b^+CFSE^+ macrophages | effect on activity of 21 purified protein kinases [4]: no effect | IC50 (hERG K^+ channel): > 50 µM | active caspase-3 and Ki67 in tumor tissues (IHC) (MC38-GFP-Luc cells; 10 mg/kg every day for 4 weeks): increased levels of active caspase-3 and reduced levels of Ki67 | mortality and tumor weight (MC38-GFP-Luc cells; 10 mg/kg every day for 4 weeks, vs vehicle): significant reduction in mortality and tumor weight | CD8+ T-cell-mediated killing, luciferase activity (MC38-GFP-Luc cells; MC38-GFP-Luc cells derived from treated mice, vs vehicle): significantly lower luciferase activity | population of GFP+CD11b+ BMDMs, in words (MC38-GFP-Luc cells; coculture with MC38-GFP-Luc cells isolated from tumors): significantly increased the population of GFP^+CD11b^+ BMDMs | CD107a+ granzyme B+ and FasL+IFNγ+ CD8+ T cells (MC38-GFP-Luc cells; mesenteric lymph nodes restimulated with MC38-GFP-Luc lysates, vs vehicle): increased population of CD107a^+ granzyme B^+ and FasL^+IFNγ^+ CD8^+ T cells | Foxp3+ cells in the CD4+ TCRβ+ gate (MC38-GFP-Luc cells; [10]): decreased population of Foxp3^+ cells | IFNγ+ and IL17a+ in CD4+ T cells (MC38-GFP-Luc cells; [10]): significantly increased the population of IFNγ^+ and IL17a^+ in CD4^+ T cells | release of HMGB1, in words (CRC cells [5]): increased the release of HMGB1 in a dose-dependent manner | expression of CD44 and CD133 (DLD1 cells [6]): significantly decreased the expression of CD44 and CD133 | sphere-forming capacity (DLD1 cells [7]): significantly decreased the sphere-forming capacity | TCF transactivation in CRC cells (CRC cells [8]): significantly suppressed TCF transactivation | inhibition at 10 µM (hERG channel): 3.4% | CD8 expression (IHC) [9]: increased the expression level of CD8 | active caspase-3, Ki67 and CD31 in tumor tissues (IHC) [9]: increased the level of active caspase-3 and decreased the levels of Ki67 and CD31 | do not eat-me and eat-me signals in tumor tissues (IHC) [9]: decreased the expression of “do not eat-me” signals but increased that of “eat-me” signals | immune checkpoints (PD1, B7H4) and Foxp3 (IHC) [9]: reduced the expression of immune checkpoints (PD1 and B7H4) and Foxp3 | mortality [9]: significantly lower | number of intestinal polyps [9]: significantly lower | tumor formation [9]: attenuated the tumor formation | β-catenin and downstream target proteins (IHC) [9]: suppressed the levels of β-catenin and its downstream target proteins | Wnt3a- and β-catenin-induced TCF transactivation (HEK293 cells): significantly decreased Wnt3a- and β-catenin-induced TCF transactivation
